Source: US20250353864A1, “INDAZOLE CONTAINING MACROCYCLES AND THEIR USE” (BLOSSOMHILL THERAPEUTICS, INC., priority 2022, published 2025)

Tests used:
Type in all cases: biochemical
EGFR WT = EGFR WT (Homo sapiens (Human), UniProt P00533); test: HotSpot radiometric kinase assay (Reaction Biology), EGFR WT; details: 10 μM ATP
Outline: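 IC50 values come from curve fits of ^33P incorporation captured on P81 filters after acid washing. Kinase reactions ran 120 min at room temperature with 10 μM ATP, added about 20 min after compound. Buffer was Hepes pH 7.5 containing Mg, DTT and 1% DMSO.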

EGFR (D770_N771insNPG) = EGFR (D770_N771insNPG) (Homo sapiens (Human), UniProt P00533, INS770NPG); test: HotSpot radiometric kinase assay, EGFR (D770_N771insNPG); details: 10 μM ATP, read-out: EGFR (Δ770_N771insNPG) IC50
Outline: (§1)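 10 μM ATP (33P-labelled, final); 120 min RT; P81 filter capture, 0.75% phosphoric acid washes. Cpd preincubated ~20 min with enzyme/substrate, 20 mM Hepes pH 7.5, 10 mM MgCl2, 1% DMSO. IC50 by curve fit.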

EGFR Δ746-750 mutant = EGFR Δ746-750 mutant (Homo sapiens (Human), UniProt P00533, DEL746-750); test: HotSpot radiometric kinase assay, EGFR Δ746-750 mutant; details: 10 μM ATP
Outline: as §1

[1] = biological target: EGFR Δ746-750/C797S mutant (Homo sapiens (Human), UniProt P00533, C797S/DEL746-750); test: HotSpot radiometric kinase assay, EGFR Δ746-750/C797S mutant; details: 10 μM ATP
Outline: as §1

EGFR L858R mutant = EGFR L858R mutant (Homo sapiens (Human), UniProt P00533, L858R); test: HotSpot radiometric kinase assay, EGFR L858R mutant; details: 10 μM ATP
Outline: as §1

EGFR L858R/T790M mutant = EGFR L858R/T790M mutant (Homo sapiens (Human), UniProt P00533, L858R/T790M); test: HotSpot radiometric kinase assay, EGFR L858R/T790M mutant; details: 10 μM ATP
Outline: as §1

[2] = biological target: EGFR L858R/T790M/C797S mutant (Homo sapiens (Human), UniProt P00533, C797S/L858R/T790M); test: HotSpot radiometric kinase assay, EGFR L858R/T790M/C797S mutant; details: 10 μM ATP
Outline: as §1

CLK1 = CLK1 (Homo sapiens (Human), UniProt P49759); test: Inhibition of CLK1 kinase activity evaluated at Nanosyn (ADP-Glo); details: ADP-Glo luminescence
Outline: (§2)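 ADP-Glo luminescence (40 min depletion, 10 min detection) quantifies ADP from ATP-initiated phosphorylation of substrate by each CLK isoform in HEPES pH 7.5 buffer, 1% DMSO, assay-specific incubation. %-inhibition calculated against uninhibited and enzyme-free controls.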

CLK2 = CLK2 (Homo sapiens (Human), UniProt P49760); test: Inhibition of CLK2 kinase activity evaluated at Nanosyn (ADP-Glo); details: ADP-Glo luminescence
Outline: as §2

CLK3 = CLK3 (Homo sapiens (Human), UniProt P49761); test: Inhibition of CLK3 kinase activity evaluated at Nanosyn (ADP-Glo); details: ADP-Glo luminescence
Outline: as §2

CLK4 = CLK4 (Homo sapiens (Human), UniProt Q9HAZ1); test: Inhibition of CLK4 kinase activity evaluated at Nanosyn (ADP-Glo); details: ADP-Glo luminescence
Outline: as §2

CLK4, sequence (Q9HAZ1 whole entry): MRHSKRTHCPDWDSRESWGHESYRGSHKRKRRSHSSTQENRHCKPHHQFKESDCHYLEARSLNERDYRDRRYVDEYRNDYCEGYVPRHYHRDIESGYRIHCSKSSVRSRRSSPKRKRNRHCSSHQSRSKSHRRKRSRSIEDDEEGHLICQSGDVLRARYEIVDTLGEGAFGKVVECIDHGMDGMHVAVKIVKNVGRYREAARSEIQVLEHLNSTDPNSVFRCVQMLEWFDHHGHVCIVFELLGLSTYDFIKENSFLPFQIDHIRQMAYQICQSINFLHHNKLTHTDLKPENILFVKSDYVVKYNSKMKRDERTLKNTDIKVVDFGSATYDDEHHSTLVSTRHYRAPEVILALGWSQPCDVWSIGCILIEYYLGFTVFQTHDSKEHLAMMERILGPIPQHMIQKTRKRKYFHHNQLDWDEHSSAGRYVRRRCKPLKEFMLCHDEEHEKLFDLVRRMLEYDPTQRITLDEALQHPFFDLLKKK
CLK3, sequence (P49761 whole entry): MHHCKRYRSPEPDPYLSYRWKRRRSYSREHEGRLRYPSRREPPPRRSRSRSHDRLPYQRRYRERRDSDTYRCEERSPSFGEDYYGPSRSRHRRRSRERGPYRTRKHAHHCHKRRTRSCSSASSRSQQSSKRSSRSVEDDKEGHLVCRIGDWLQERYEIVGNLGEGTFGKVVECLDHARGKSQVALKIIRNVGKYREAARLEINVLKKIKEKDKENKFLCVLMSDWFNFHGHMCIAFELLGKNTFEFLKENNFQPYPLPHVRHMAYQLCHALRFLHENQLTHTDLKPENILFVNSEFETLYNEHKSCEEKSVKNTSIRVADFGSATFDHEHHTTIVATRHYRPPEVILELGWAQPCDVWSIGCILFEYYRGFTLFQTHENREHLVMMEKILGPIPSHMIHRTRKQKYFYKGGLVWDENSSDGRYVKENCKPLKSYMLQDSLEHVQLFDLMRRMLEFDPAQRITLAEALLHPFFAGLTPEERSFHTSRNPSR
CLK1, sequence (P49759 whole entry, canonical isoform): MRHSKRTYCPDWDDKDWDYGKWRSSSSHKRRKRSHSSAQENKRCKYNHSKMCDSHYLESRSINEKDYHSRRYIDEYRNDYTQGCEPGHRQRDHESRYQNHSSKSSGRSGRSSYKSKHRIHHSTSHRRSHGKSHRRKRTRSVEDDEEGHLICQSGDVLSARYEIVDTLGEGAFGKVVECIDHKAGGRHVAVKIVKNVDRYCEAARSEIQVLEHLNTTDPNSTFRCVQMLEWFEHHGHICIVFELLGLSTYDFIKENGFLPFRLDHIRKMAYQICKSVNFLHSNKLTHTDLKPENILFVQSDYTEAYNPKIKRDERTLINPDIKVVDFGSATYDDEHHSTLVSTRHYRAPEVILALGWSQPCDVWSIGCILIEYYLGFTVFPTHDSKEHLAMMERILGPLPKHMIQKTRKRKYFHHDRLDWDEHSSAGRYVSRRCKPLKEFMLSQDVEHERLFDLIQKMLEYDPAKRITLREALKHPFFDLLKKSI
EGFR L858R/T790M mutant, sequence (P00533 25-1210 T790M/L858R): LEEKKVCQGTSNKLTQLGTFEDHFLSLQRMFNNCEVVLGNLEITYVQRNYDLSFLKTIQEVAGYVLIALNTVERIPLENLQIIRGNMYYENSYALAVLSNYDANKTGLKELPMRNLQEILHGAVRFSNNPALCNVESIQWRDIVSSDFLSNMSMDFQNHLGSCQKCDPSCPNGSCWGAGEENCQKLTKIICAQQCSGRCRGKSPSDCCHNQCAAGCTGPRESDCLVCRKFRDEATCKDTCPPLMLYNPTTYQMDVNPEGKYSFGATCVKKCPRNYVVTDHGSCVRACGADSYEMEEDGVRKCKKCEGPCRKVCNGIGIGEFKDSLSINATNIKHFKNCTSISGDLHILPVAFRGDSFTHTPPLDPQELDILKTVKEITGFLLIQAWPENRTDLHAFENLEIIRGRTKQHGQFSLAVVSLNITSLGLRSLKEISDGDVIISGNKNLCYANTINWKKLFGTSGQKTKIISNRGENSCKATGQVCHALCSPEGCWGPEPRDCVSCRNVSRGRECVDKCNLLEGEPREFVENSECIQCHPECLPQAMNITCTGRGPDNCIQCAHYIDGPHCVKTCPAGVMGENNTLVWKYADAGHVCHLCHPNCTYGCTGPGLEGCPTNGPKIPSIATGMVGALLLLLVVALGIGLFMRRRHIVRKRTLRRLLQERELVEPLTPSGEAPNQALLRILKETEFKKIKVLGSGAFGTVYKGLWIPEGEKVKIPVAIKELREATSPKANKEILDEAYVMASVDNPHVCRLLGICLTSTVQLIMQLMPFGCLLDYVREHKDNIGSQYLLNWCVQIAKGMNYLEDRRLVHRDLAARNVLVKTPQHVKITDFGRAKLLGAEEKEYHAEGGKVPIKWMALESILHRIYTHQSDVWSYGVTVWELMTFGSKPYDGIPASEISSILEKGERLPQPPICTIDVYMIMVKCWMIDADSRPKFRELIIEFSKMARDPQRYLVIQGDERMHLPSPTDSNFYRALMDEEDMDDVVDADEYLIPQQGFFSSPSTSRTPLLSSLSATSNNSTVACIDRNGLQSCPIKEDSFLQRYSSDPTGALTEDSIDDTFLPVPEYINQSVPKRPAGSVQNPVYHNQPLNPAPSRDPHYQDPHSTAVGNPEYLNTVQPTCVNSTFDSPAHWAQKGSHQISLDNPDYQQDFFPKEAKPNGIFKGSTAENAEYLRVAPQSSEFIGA
EGFR Δ746-750 mutant, sequence (P00533 other isoform, or with tags, fused parts or gaps del 1-668/del 746-750 limits assumed): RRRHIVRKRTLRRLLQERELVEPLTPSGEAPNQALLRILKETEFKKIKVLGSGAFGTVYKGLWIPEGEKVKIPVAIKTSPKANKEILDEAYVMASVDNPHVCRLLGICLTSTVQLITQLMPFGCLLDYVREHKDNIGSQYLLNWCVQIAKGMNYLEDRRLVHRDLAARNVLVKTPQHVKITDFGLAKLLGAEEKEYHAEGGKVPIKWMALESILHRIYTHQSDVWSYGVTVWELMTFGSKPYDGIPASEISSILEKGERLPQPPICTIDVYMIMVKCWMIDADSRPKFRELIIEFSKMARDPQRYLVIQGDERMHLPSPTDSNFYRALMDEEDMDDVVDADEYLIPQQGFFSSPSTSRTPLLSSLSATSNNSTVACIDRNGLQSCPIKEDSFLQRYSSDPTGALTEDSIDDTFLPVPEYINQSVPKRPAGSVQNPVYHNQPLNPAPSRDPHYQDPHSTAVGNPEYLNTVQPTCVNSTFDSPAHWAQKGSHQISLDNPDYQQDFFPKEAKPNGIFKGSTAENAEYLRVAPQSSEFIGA
EGFR L858R mutant, sequence (P00533 25-1210 L858R): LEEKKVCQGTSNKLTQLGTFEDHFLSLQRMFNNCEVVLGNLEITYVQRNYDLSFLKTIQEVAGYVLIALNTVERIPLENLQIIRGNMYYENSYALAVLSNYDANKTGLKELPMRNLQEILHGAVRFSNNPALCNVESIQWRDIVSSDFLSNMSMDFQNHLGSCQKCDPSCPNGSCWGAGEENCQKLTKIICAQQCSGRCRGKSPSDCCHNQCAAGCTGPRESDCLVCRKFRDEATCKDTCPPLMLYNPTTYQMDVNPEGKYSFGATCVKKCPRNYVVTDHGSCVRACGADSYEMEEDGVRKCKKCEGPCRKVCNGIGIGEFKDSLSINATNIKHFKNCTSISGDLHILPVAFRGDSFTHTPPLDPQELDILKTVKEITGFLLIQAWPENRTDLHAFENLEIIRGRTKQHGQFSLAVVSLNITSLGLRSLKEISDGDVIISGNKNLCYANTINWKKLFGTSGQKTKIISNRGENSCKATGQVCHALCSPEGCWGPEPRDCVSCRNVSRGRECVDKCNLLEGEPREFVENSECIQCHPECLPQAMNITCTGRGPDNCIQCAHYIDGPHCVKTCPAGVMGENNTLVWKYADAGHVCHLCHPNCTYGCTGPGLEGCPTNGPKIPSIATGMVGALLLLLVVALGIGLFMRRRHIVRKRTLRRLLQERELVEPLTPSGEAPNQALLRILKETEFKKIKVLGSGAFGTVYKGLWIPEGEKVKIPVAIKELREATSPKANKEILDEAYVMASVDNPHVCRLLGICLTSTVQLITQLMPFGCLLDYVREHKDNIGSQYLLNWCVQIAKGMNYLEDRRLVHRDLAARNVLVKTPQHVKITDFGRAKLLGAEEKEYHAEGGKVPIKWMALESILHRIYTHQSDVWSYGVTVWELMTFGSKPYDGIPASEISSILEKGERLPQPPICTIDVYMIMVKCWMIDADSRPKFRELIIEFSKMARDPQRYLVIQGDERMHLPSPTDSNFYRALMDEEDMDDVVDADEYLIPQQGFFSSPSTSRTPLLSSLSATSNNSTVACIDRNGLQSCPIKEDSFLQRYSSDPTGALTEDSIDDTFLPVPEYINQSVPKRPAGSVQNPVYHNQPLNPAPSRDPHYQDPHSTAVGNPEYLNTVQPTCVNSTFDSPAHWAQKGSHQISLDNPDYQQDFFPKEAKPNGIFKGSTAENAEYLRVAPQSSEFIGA
EGFR (D770_N771insNPG), sequence (P00533 other isoform, or with tags, fused parts or gaps del 1-668/ins NPG behind 770 limits assumed): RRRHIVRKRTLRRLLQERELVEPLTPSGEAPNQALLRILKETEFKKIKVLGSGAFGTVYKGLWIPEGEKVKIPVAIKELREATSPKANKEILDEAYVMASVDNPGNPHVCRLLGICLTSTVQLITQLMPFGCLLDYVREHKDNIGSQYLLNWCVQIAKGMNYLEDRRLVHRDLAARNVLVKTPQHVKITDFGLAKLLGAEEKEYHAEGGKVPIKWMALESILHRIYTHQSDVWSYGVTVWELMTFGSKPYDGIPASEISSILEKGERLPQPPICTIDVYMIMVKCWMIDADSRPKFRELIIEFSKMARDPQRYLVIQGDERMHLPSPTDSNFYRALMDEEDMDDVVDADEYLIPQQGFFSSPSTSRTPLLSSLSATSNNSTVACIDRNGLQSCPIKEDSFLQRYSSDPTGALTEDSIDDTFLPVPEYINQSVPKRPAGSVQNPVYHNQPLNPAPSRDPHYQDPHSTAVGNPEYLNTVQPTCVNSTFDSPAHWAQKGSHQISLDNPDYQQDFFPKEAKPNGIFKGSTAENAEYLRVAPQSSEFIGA

SMILES | IC50 (EGFR WT) | IC50 (EGFR (D770_N771insNPG)) | IC50 (EGFR Δ746-750 mutant) | IC50 [1] | IC50 (EGFR L858R mutant) | IC50 (EGFR L858R/T790M mutant) | IC50 [2] | IC50 (CLK1) | IC50 (CLK2) | IC50 (CLK3) | IC50 (CLK4)
CC(C)Oc1nn(CCO)c2c1/C=C/c1n[nH]c3ccc(cc13)-c1cnn(C)c1O[C@@H](C)[C@H]1CCCN1C2 [Example 252, 2-[(8aR,9S,19E)-9,11-dimethyl-1-[(propan-2-yl)oxy]-7,8,8a,9,11,17-hexahydro-6H-14,16-ethenotripyrazolo[3,4-f:3′,4′-j:4″,3″-n]pyrrolo[2,1-c][1,4]oxazacyclopentadecin-3(4H)-yl]ethan-1-ol] | 4.74 nM | 15.7 nM | 1.31 nM | 2.29 nM | 2.38 nM | 1.91 nM | 5.35 nM | 0.83 nM | 0.42 nM | 168 nM | 1.59 nM
CCOc1nn([C@@H](C)CO)c2c1/C=C/c1n[nH]c3cc(F)c(cc13)-c1cnn(C)c1OC[C@H](C)N(C(C)C)C2 [Example 228, (2S)-2-[(11S,17E)-16-ethoxy-19-fluoro-8,11-dimethyl-12-(propan-2-yl)-2,8,10,11,12,13-hexahydro-14H-3,5-ethenotripyrazolo[3,4-f:3′,4′-j:4″,3″- n][1,4]oxazacyclopentadecin-14-yl]propan-1-ol] | 52.7 nM | 481 nM | 12.2 nM | 44.4 nM | 25.2 nM | 25.9 nM | 10.6 nM | 21.9 nM | 8.6 nM | 1000 nM | 34 nM
CCOc1nn(CCO)c2c1/C=C/c1n[nH]c3cc(F)c(cc13)-c1cnn(C)c1O[C@@H]1CCCN(C2)C1 [Example 191, 2-[(10R,19E)-18-ethoxy-22-fluoro-8-methyl-2,10,11,12,13,15-hexahydro-3,5-etheno-10,14-methanotripyrazolo[3,4-h:3′,4′-l:4″,3″-p][1,6]oxazacycloheptadecin-16(8H)-yl]ethan-1-o] | 19.8 nM | 102 nM | 9.04 nM | 4.19 nM | 5.61 nM | 4.23 nM | 2.63 nM | 2.42 nM | 4.37 nM | 43.4 nM | 2.41 nM
CCN1Cc2c(c(OC(C)C)nn2C[C@H](C)O)/C=C/c2n[nH]c3ccc(cc23)-c2cnn(C)c2O[C@H](C)C1 [Example 227, (2S)-1-{(10R,17E)-12-ethyl-8,10-dimethyl-16-[(propan-2-yl)oxy]-2,8,10,11,12,13-hexahydro-14H-3,5-ethenotripyrazolo[3,4-f:3′,4′-j:4″,3″- n][1,4]oxazacyclopentadecin-14-yl}propan-2-ol] | 251 nM | 167 nM | 9.86 nM | 6.82 nM | 60.1 nM | 0.84 nM | 0.36 nM | 4.9 nM | 2.59 nM | 471 nM | 4.63 nM
COCc1nn(CCO)c2c1/C=C/c1n[nH]c3ccc(cc13)-c1cnn(C)c1O[C@@H](C)CN(C)C2 [Example 261, 2-[(10S,17E)-16-(methoxymethyl)-8,10,12-trimethyl-2,8,10,11,12,13-hexahydro-14H-3,5-ethenotripyrazolo[3,4-f:3′,4′-j:4″,3″-n][1,4]oxazacyclopentadecin-14-yl]ethan-1-ol] | 93.7 nM | 230 nM | 23.5 nM | 5.93 nM | 21.6 nM | 1.92 nM | 5.1 nM | 0.2 nM | 0.33 nM | 209 nM | 0.44 nM

Results, then the molecule that gave them:

IC50 (EGFR WT) | IC50 (EGFR (D770_N771insNPG)) | IC50 (EGFR Δ746-750 mutant) | IC50 [1] | IC50 (EGFR L858R mutant) | IC50 (EGFR L858R/T790M mutant) | IC50 [2] | IC50 (CLK1) | IC50 (CLK2) | IC50 (CLK3) | IC50 (CLK4) | SMILES
> 1000 nM | > 1000 nM | 826 nM | 653 nM | 775 nM | 5.92 nM | 10.5 nM | 1.12 nM | 12.5 nM | 1000 nM | 1.52 nM | CCOc1nccc2c1/C=C/c1n[nH]c3ccc(cc13)-c1cnn(C)c1O[C@@H](C)CN(C)C2 [Example 240, (10S,18E)-17-ethoxy-8,10,12-trimethyl-2,8,10,11,12,13-hexahydro-3,5-ethenodipyrazolo[3,4-j:4′,3′-n]pyrido[4,3-f][1,4]oxazacyclopentadecine]
8.28 nM | 1.12 nM | 0.61 nM | 2.75 nM | 1.31 nM | 0.21 nM | 0.98 nM | 0.17 nM | 0.04 nM | 0.19 nM | 0.5 nM | CN1CCC(c2ccc3c(c2)O[C@@H]2CCN(CCOc4c(cnn4C)-c4ccc5[nH]nc(c5c4)/C=C/3)C2=O)CC1 [Example 112, (10R,16E)-3-methyl-13-(1-methylpiperidin-4-yl)-3,5,6,9,10,19-hexahydro-8H-20,22-etheno-7,10-methanodipyrazolo[3,4-i:4′,3′-m][1,8,5]benzodioxazacyclooctadecin-25-one]
11.4 nM | 10.1 nM | 1.3 nM | 0.8 nM | 1.5 nM | 0.33 nM | 0.75 nM | 0.17 nM | 0.1 nM | 171 nM | 0.45 nM | Cc1nn(C[C@H](C)O)c2c1/C=C/c1n[nH]c3ccc(cc13)-c1cnn(C)c1O[C@@H](C)CN(C)C2 [Example 123, (2S)-1-[(10S,17E)-8,10,12,16-tetramethyl-2,8,10,11,12,13-hexahydro-14H-3,5-ethenotripyrazolo[3,4f:3′,4′-j:4″,3″-n][1,4]oxazacyclopentadecin-14-yl]propan-2-ol]
543 nM | 541 nM | 74.8 nM | 133 nM | 144 nM | 13.5 nM | 34.5 nM | 0.1 nM | 0.14 nM | 236 nM | 0.25 nM | Cc1nn(C)c2c1/C=C/c1n[nH]c3ccc(cc13)-c1cnn(C)c1OCCN(C)C2 [Example 43, (17E)-8,12,14,16-tetramethyl-2,10,11,12,13,14-hexahydro-8H-3,5-ethenotripyrazolo[3,4-f:3′,4′-j:4″,3″- n][1,4]oxazacyclopentadecine]
> 1000 nM | > 1000 nM | > 1000 nM | > 1000 nM | > 1000 nM | 1010 nM | 507 nM | 2.75 nM | 9.57 nM | 1000 nM | 1.66 nM | CC(C)c1noc2c1/C=C/c1n[nH]c3ccc(cc13)-c1cnn(C)c1O[C@@H](C)CN(C)C2 [Example 179, (10S,17E)-8,10,12-trimethyl-16-(propan-2-yl)-2,8,10,11,12,13-hexahydro-3,5-etheno[1,2]oxazolo[5,4-f]dipyrazolo[3,4-j:4′,3′-n][1,4]oxazacyclopentadecine]
36.8 nM | 47 nM | 5.84 nM | 1.96 nM | 13.1 nM | 0.89 nM | 0.26 nM | 0.76 nM | 1.61 nM | 1000 nM | 1.63 nM | CCOc1nn(CCO)c2c1/C=C/c1n[nH]c3ccc(cc13)-c1cnn(C)c1OC[C@H](C)N(C1CC1)C2 [Example 198, 2-[(11S,17E)-12-cyclopropyl-16-ethoxy-8,11-dimethyl-2,8,10,11,12,13-hexahydro-14H-3,5-ethenotripyrazolo[3,4-f:3′,4′-j:4″,3″- n][1,4]oxazacyclopentadecin-14-yl]ethan-1-ol]
908 nM | 329 nM | 116 nM | 30.2 nM | 310 nM | 36.6 nM | 25.9 nM | 0.38 nM | 0.36 nM | 1000 nM | 0.43 nM | Cn1ncc2c1OCCN1CC[C@H](C1)Oc1ccccc1/C=C/c1n[nH]c3ccc-2cc13 [Example 170, (10R,16E)-3-methyl-3,5,6,9,10,19-hexahydro-8H-20,22-etheno-7,10-methanodipyrazolo[3,4-i:4′,3′-m][1,8,5]benzodioxazacyclooctadecine]
